In patent US11464821B2, “Composition for reducing cancer cachexia or weight loss caused by anticancer drug therapy or radiation therapy comprising ginseng extract having increased ginsenoside Rg3 and Rh2” (GREEN CROSS WELLBEING CORPORATION, priority 2013, dated 2022):
Read-outs that look alike come from different tables or passages of the source. Marks after values point to notes of the source that are not given here.

Key:
Assay type in all cases: in vivo, Balb/c-nu/nu mice
[1] = test system: animal models xenografted with HT-29 colon cancer cell line; test: Running wheel activity (voluntary motor activity), test example 1; details: HT-29 xenografted mice, 100 mg/kg oral, every day for 4 weeks
Protocol: (§1) 6-wk-old Balb/c-nu/nu female mice weighing 20±2 g were obtained from Orient Inc., and housed in animal rooms under a temperature of 23±1° C., relative humidity of 55±15%, and 12-hour light/dark illumination cycle. […] After acclamation for 1 week, 100 μl of HT-29 cells (5×10^6 cells/mouse) were subcutaneously injected into the flank of the Balb/c nu/nu mouse, and the mice were observed by the naked eyes. The mice were randomized into groups when the tumor size reached 150 mm^3, and then drug administration was initiated. Voluntary motor activity (running wheel activity) and forced motor activity (swimming test) were measured after the administration of anticancer drug and drugs was completed, and the amount of glycogen synthesized in the muscle was assayed through an ELISA kit after the tissue taken from the femoral region on the final date of autopsy was homogenized. Running wheel activity (Running distance=meter/10 min)
The voluntary motor activity was measured as the parameter of cancer-related fatigue (CRF) through running wheel activity. The number of wheels ran for a total of 10 min on 300Ø wheel was counted, and running distance was calculated. *Running distance=circumference (30 cm×3.14)×number of wheels/10 min […]

[2] = test system: animal models xenografted with HT-29 colon cancer cell line; test: Swimming test (forced motor activity), test example 1; details: HT-29 xenografted mice, 100 mg/kg oral, every day for 4 weeks
Protocol: as §1
A transparent temperature-constant water bath (500 mm×500 mm×400 mm), which maintained the designated temperature and water level, was filled with warm water (23±1° C.), and then the animals were subjected to forced swimming (FS). The swimming time immediately after total exhaustion was recorded. […]

[3] = test system: animal models xenografted with HT-29 colon cancer cell line
Protocol: as §1
(§2) All the examples and comparative examples were diluted in phosphate buffered saline (PBS) according to the dosage, and compulsorily administered to the animals using needle for oral administration (Sonde). The dosage was diluted in PBS to 100 mg/kg of body weight, and the dosage was calculated such that 100 μl/20 g was administered depending on the weight measured on the day of administration. Test materials were administered at the same time once per day, at 10 AM, for 4 weeks, for the examples and comparative examples.
Evaluation was conducted in the same conditions as in test example 1, except that all the examples and comparative examples were compared in the conditions of treatment with an anticancer drug. The treatment with 5-FU as an anticancer drug was conducted at 30 mg/kg three times per week.

[4] = test system: animal models xenografted with HT-29 colon cancer cell line; test: Glycogen synthesized in femoral muscle (ELISA kit) under radiation treatment, test example 3
Protocol: as §1, §2
Evaluation was conducted in the same conditions as in test example 1, except that all the examples and comparative examples were compared in the conditions of radiation treatment. The radiation treatment was conducted at 10 Gy three times per week.

Row | SMILES | Running distance for 10 min (meter/10 min) [1] | Incerase (%) in running distance for 10 min, compared with control ([1]; vs xenograft control) | Total swimming time ([2]; forced swimming to exhaustion, water 23±1° C.) | Increase (%) in swimming time, compared with control ([2]; vs xenograft control) | Mean Muscle Glycogen ([3]; HT-29 xenografted mice, co-administered with 5-FU 30 mg/kg i.p. 3 days per week, 100 mg/kg oral daily for 4 weeks, femoral muscle) | Increase (%) in glycogen synthesis, compared with control ([3]; co-administered with 5-FU 30 mg/kg i.p. 3 days per week, 100 mg/kg oral daily for 4 weeks, vs 5-FU control) | amount of glycogen synthesis compared with control group administered with the anticancer drug (in words) ([3]; co-administered with 5-FU for 4 weeks) | Mean Muscle Glycogen ([4]; HT-29 xenografted mice, with radio therapy 10 Gy 3 days per week, oral daily for 4 weeks, femoral muscle) | amount of glycogen synthesis compared with control group treated with radiation (in words) ([4]; combined with radiation treatment for 4 weeks) | Increase (%) in glycogen synthesis, compared with control ([4]; with radio therapy 10 Gy 3 days per week, oral daily for 4 weeks, vs radio therapy control) | Mean Muscle Glycogen (mg/g), 5-FU control ([3]; mouse, in vivo) | reduction of amount of glycogen synthesis compared with the normal groups ([3]; mouse, in vivo)
1 | NC(=O)C[S+]([O-])C(c1ccccc1)c1ccccc1 (stereo not drawn) [Comparative example 12, Modafinil] | 80.1 ± 1.9** meter/10 min | 52.6% | 731.8 ± 60.1 s | 63.5% | 4.3 ± 0.5 mg/g | 18.4% | did not show any great change | 3.9 ± 0.2 mg/g | did not show any great change | 7.9% | – | –
2 | O=c1[nH]cc(F)c(=O)[nH]1 [Example 5-FU, 5-fluorouracil] | – | – | – | – | – | – | – | – | – | – | 3.6 ± 0.34 mg/g | 51.4%
